{
  "source": "patent US20240002470A1",
  "about": "“Method for separation and/or detection and/or in vitro quantification of infectious compounds in biological material” (priority 2020, published 2024)",
  "molecules": {"B1": {"name": "β2GPI: plasma glycoprotein called β2-glycoprotein I, grafted on beads as the reference (protein, UniProt P02749 20-345, looked up)", "Beta-2-glycoprotein 1": "GRTCPKPDDLPFSTVVPLKTFYEPGEEITYSCKPGYVSRGGMRKFICPLTGLWPINTLKCTPRVCPFAGILENGAVRYTTFEYPNTISFSCNTGFYLNGADSAKCTEEGKWSPELPVCAPIICPPPSIPTFATLRVYKPSAGNNSLYRDTAVFECLPQHAMFGNDTITCTTHGNWTKLPECREVKCPFPSRPDNGFVNYPAKPTLYYKDKATFGCHDGYSLDGPEEIECTKLGNWSAMPSCKASCKVPVKKATVVYQGERVKIQEKFKNGMLHGDKVSFFCKNKEKKCSYTEDAQCIDGTIEVPKCFKEHSSLAFWKTDASDVKPC", "modifications": "grafted on beads"}},
  "key": {"[1]": {"system": "BVDV virus (Bovine viral Diarrhea Virus)", "test": "Capture of BVDV virus on magnetic microbeads coated with pepβ2GPI", "assay_type": "binding", "description": "The pepβ2GPI were grafted onto the microbeads according to the supplier's recommendations. In summary, the microbeads are suspended in phosphate buffer at a pH of 6.0. The beads are then activated, for 15 minutes, in the presence of 1-ethyl-3-(3-Dimethylaminopropyl) carbodiimide and N-hydroxysuccinimide. After washing with HCl, 2 mM, the beads are suspended in a phosphate buffer at a pH of 7.5, containing the pepβ2GPI. The concentration of pepβ2GPI in this coupling buffer is 20 mg/L; the microbeads are incubated in the buffer with gentle and constant shaking at a temperature of 25° C. for 3 hours. The microbeads are then centrifuged at 1,500 rpm and the supernatant is removed; the centrifugation pellet is suspended in the same buffer as that used for the coupling of pepβ2GPI, which forms the suspension of microbeads coated with pepβ2GPI which we want to test.\nOne hundred microliters of viral culture supernatant to be studied are placed in an Eppendorf tube with 900 microliters of Tris buffer at a pH of 7.5 and 10 microliters of microbeads. The tubes are shaken horizontally to mix the microbeads well, and each tube is incubated at 37° C. or at room temperature (RT=22° C.) for 30 minutes. In each tube, the microbeads are then separated from the liquid phase by means of a magnet, placed externally against the wall of the tube, and the viral RNA is extracted. The beads are brought into contact with a viral lysis buffer, included in an RNA extraction kit: QIAamp RNA viral kit, sold by QIAGEN and the viral RNA is isolated according to the seller's recommendations.\nThe viruses tested are the HSV virus (Herpes Simplex virus) and the BVDV virus (Bovine viral Diarrhea Virus).\nThe same protocol as that described in example 1 was carried out."}, "E. coli ATCC 11105": {"system": "E. coli ATCC 11105", "test": "Capture on magnetic microbeads coated with pepβ2GPI: C3 E. coli ATCC 11105", "assay_type": "binding", "description": "To test the interaction of microbeads coated with β2GPI and the peptides derived from them, with bacteria present in the blood, 1 ml of blood culture is taken from each sample and placed in a 15 ml tube. 20 μl of microbeads are added and each tube is incubated at 37° C. with horizontal shaking. The tubes are then placed in a magnetic field which retains the microbeads on the wall and the supernatant is removed. The microbeads are then washed twice with sterile PBS, of the same composition as previously indicated; the microbeads are then resuspended in 150 μl of BTS culture medium. Two methods for detecting bacteria captured by microbeads were used: culture on TS agar and PCR For the detection of the bacterial capture by culture, 50 μl of the suspension of microbeads thus obtained are taken and they are spread out in a Petri dish containing TS agar. Petri dishes are incubated in an oven at 37° C. for 24 hours. The bacteria that have grown on the agar were then counted.\nThe tested bacteria are: C3 E. coli ATCC 11105, C5 S. aureus ATCC 6538, H61 E. coli B6054, C1: E. coli ATCC 8739, H46: C. albicans 1 and H: 60 SCN\nThe same protocol and primers as those described in example 9 were carried out."}, "S. aureus, SA 378804": {"system": "S. aureus, SA 378804", "test": "Capture of S. aureus SA 378804 on magnetic microbeads, culture and counting", "assay_type": "binding, Staphylococcus aureus", "conditions": "S. aureus SA 378804 colonies from captured beads", "description": "One ml of the culture of bacteria to be studied is placed in a hemolysis tube. 100 μl of buffer are added, the trade name of which is TTGB, then 20 μl of microbeads. The tube is stirred horizontally, to mix the microbeads well, and incubated at 37° C. or at room temperature (TA=22° C.) for half an hour. At the end of the incubation, the microbeads are separated from the liquid phase by means of a magnet, placed externally against the wall of the tube. The microbeads are then washed twice with LB medium and then resuspended in 1 ml of BTS culture medium (Tripticase-Soy broth) having the following formulation: […]\nThis culture medium is brought to a boil and then autoclaved, to make it sterile, before use. 20 μl of the microbead suspension are taken and spread in a Petri dish containing TS agar (Trypticase-Soya agar) having the following formulation: […]\nThe Petri dishes are incubated at +37° C. for 24 hours. The bacteria that have grown on the agar are then counted.\nThe used bacterium is a strain of Staphylococcus aureus (S. aureus), SA 378804, isolated from the wound of the foot of a diabetic person, Sotto et al., Diabetes Care (2008) 31 (12), p. 2318-24. The same experiment as that described in the previous example was carried out."}},
  "data": [
    {"molecule": "H-((SSLAFWK)2-K)2-K—NH2 [Peptide P11]", "values": [
      {"measurement": "Capture of BVDV virus", "setting": "[1]", "value": 266, "unit": "%"},
      {"measurement": "Capture of C3 E. coli ATCC 11105", "setting": "E. coli ATCC 11105", "value": 43, "unit": "%"}
    ]},
    {"molecule": "B1", "values": [
      {"measurement": "% compared to β2GPI", "setting": "S. aureus, SA 378804", "value": 100, "unit": "%"}
    ]}
  ]
}
